Three compounds from publication PMC4597613, “Polyhedra structures and the evolution of the insect viruses” (Journal of Structural Biology, 2015) can be followed below.

One assay concerns the target CPV18 polyhedrin (Operophtera brumata cypovirus 18, UniProt Q30C70). Nature of the assay: X-ray crystal structure of polyhedra, […] A. In kind it is binding. The conditions noted are these: nucleotide trapped in crystal from Sf9 cells, purine cluster.
Another assay addresses CPV15 polyhedrin (Trichoplusia ni cypovirus 15, UniProt Q9ELS6). The following applies: nucleotide trapped in crystal from Sf9 cells; two ATPs in purine cluster site, one on V3 and V2c, the other at the 2-fold axis.
Another assay concerns the target CPV20 polyhedrin (Simulium ubiquitum cypovirus, UniProt Q0MX25). The assay is described as follows: X-ray crystal structure of polyhedra, […] A. In kind it is binding. The following applies: nucleotide trapped in crystal from Sf9 cells; pyrimidine region in trimer interface; not well ordered, identity inferred from space and hydrogen bonding.

For the compound `Nc1ncnc2c1ncn2[C@@H]1O[C@H](COP(=O)(O)OP(=O)(O)OP(=O)(O)O)[C@@H](O)[C@H]1O` [ATP], at CPV18 polyhedrin (V4 regions of two chains, H154 to phosphates), the “X-ray crystal structure of polyhedra, 1.48 A” value is recorded as “ATP is supported by two V4 regions from different polypeptide chains”. The “X-ray crystal structure of polyhedra, 1.82 A” value at CPV15 polyhedrin is given as “leaving space for two ATPs in different conformations to CPV1”. As to `Nc1nc2c(ncn2[C@@H]2O[C@H](COP(=O)(O)OP(=O)(O)OP(=O)(O)O)[C@@H](O)[C@H]2O)c(=O)[nH]1` [GTP], the “X-ray crystal structure of polyhedra, 1.48 A” value on CPV18 polyhedrin (V2c and V1) was “GTP hydrogen bonds with V2c and V1”. Take `O=c1ccn([C@@H]2O[C@H](COP(=O)(O)OP(=O)(O)OP(=O)(O)O)[C@@H](O)[C@H]2O)c(=O)[nH]1` [UTP]: on CPV20 polyhedrin, the “X-ray crystal structure of polyhedra, 1.83 A” value is “The pyridine in CPV20 is not well ordered, but can be identified as UTP”.
